# Results reported in paper PMC10363979, “Effects of bergapten on the pharmacokinetics of macitentan in rats both in vitro and in vivo” (Frontiers in Pharmacology, 2023).
# Where two headings read alike, the source gives them in different places.
# Legend:
# [1] = Pharmacokinetic interaction between BP and macitentan in rats (plasma macitentan and ACT-132577); format: in vivo, Sprague-Dawley rats; conditions: for Cmax / Tmax / AUC(0-inf) / AUC(0-t) / CL/F / MRT last / MRT inf / half-life: Sprague-Dawley, rat, plasma, po, 20 mg/kg, macitentan in plasma, macitentan 20 mg/kg oral; for CL/F: read-out: CLz/F (converted); for MRT last: read-out: MRT(0-t); for MRT inf: read-out: MRT(0-∞); for half-life: read-out: t1/2z (converted)
# Method: (§1) The concentrations of macitentan and ACT-132577 were determined by UPLC-MS/MS, which consisted of an Acquity I-class UPLC system (Waters Corp., Milford, MA, United States) and a Xevo TQD triple quadrupole mass spectrometer (Waters Corporation, Milford, MA, United States) equipped with an electrospray ionization source. Chromatographic separation was performed on an Acquity UPLC BEH C18 column (2.1 × 100 mm, 1.7 μm) at 40°C. The mobile phase was composed of acetonitrile (solvent A) and water containing 0.1% formic acid (solvent B, pH 2.74). The gradient condition of mobile phases was set with a flow rate of 0.4 mL/min as follows: 0–0.5 min, 20% A; 0.5–1 min, 70% A; 1–2 min, 95% A; 2–2.6 min, 20% A. Positive ion and selective multiple reaction monitoring (SRM) modes were used for quantitative analysis with the precursor to product ion transitions of m/z 588.9→203.4 for macitentan, 546.9→200.6 for ACT-132577, and 285.0→193.0 for diazepam. The cone voltage and collision voltage were 28V, 14 V for macitentan, 26V, 28 V for ACT-132577, and 35V, 30 V for diazepam. The mass spectrometry parameters of the source temperature, desolvation temperature, cone gas flow rate, and desolvation gas flow rate were 150°C, 500°C, 50 L/h, and 1000 L/h, respectively.
# Twelve Sprague-Dawley rats were randomly assigned to two groups. BP (10 mg/kg) was continuously administered daily to rats in the experimental group for 7 days, whereas the 0.5% CMC-Na was orally administered once a day to rats in the control group. Rats were fasted overnight before dosing, with free access to water. Macitentan (20 mg/kg) was intragastrically administered 30 min after the last dose of BP or 0.5% CMC-Na on the seventh day. Blood samples (300 μL) were collected from the tail vein into 1.5 mL Eppendorf tubes containing 10 μL heparin sodium at the time points of 0.083, 0.25, 0.5, 1, 2, 3, 4, 6, 8, 12, 24, and 36 h after macitentan administration. Plasma was obtained after centrifugation of the blood samples at 4,000 rpm for 10 min and stored at −80°C for further analysis. Before UPLC-MS/MS analysis, 100 μL plasma was mixed with 200 μL acetonitrile and 30 μL diazepam (500 ng/mL) and then fractionated at 13,000 rpm for 5 min at 4°C. A 150 μL sample of the supernatant was collected for analysis.
# All assays were performed in triplicate, and the results are expressed as mean ± standard deviation. The pharmacokinetic parameters of elimination half-life (t1/2), area under the plasma concentration-time curve (AUC), maximal plasma concentration (Cmax), time to peak plasma concentration, plasma clearance (CLz/F), apparent volume of distribution, and mean residence time were calculated using a non-compartment model with DAS software (version 3.2.8, Lishui People’s Hospital, China). Data analysis, statistical comparisons, and graphs were generated using GraphPad Prism software (version 7.0; GraphPad Software Inc., San Diego, CA, United States). Student’s t-test of variance following the least significant difference method was used for comparisons between the control and experimental groups. Statistical significance was set at p < 0.05.
# [2] = Stability of macitentan and ACT-132577 in rat plasma (UPLC-MS/MS method validation); format: in vitro ADME
# Method: as §1
# Method validation, including accuracy, precision, recovery, matrix effects and stability, was conducted in accordance with the guidelines of the FDA and the European Medicines Agency.
# ET receptor = tested on: ET receptor; parameters: method as in Iglarz et al, 2008; conditions: ref Iglarz et al, 2008, cited from earlier work; for Pharmacological activity of metabolite: Figure 1
# [3] = cited from earlier work
# [4] = tested on: Rat liver microsomes (RLMs); assay: Inhibition of macitentan metabolism (ACT-132577 formation) by bergapten and Michaelis-Menten kinetics in rat liver microsomes; format: in vitro ADME; conditions: RLMs
# Method: as §1
# (§2) The effects of BP on macitetan metabolism in vitro were investigated using RLMs, HLMs, and rCYP3A4. And, the formation of ACT-132577 was considered as an indicator of inhibitory effect. The 200 μL incubation system contained NADPH (1 mM), potassium phosphate buffer (100mM, pH = 7.4), macitentan, BP, and RLMs (0.3 mg/mL), HLMs (0.2 mg/mL), or rCYP3A4 (0.13 mg/mL). Firstly, a series concentration of macitentan with 1, 2.5, 5, 10, 25, 50 and 100 μM were included in the reaction buffer to determine the Km and Vmax values. Then, a series concentration of BP following 0, 0.01, 0.1, 1, 5, 10, 50 and 100 μM were used for the determination of IC50 value of BP against macitentan. […] The system was pre-incubated at 37°C for 5 min, and 10 μL NADPH was added to initiate the reaction. After incubation for 30 min at 37°C, 200 μL ice-cold acetonitrile and 30 μL diazepam (500 ng/mL) were added to terminate the reaction. The samples were centrifuged at 13,000 rpm for 5 min, and the supernatant fraction (150 μL) was collected for UPLC-MS/MS analysis.
# [5] = tested on: macitentan metabolism (formation of ACT-132577); assay: as above; format: in vitro ADME; conditions: rat, rat liver microsomes, pH 7.4, probe macitentan; RLMs 0.3 mg/mL, 30 min, 37°C; read-out: IC50 of BP on macitentan metabolism
# Method: as §1, §2
# [6] = molecular target: human liver microsomes (HLMs) (Homo sapiens, UniProt P08684); assay: Inhibition of macitentan metabolism (ACT-132577 formation) by bergapten and Michaelis-Menten kinetics in human liver microsomes; format: in vitro ADME
# Sequence of human liver microsomes (HLMs) (P08684 2-503): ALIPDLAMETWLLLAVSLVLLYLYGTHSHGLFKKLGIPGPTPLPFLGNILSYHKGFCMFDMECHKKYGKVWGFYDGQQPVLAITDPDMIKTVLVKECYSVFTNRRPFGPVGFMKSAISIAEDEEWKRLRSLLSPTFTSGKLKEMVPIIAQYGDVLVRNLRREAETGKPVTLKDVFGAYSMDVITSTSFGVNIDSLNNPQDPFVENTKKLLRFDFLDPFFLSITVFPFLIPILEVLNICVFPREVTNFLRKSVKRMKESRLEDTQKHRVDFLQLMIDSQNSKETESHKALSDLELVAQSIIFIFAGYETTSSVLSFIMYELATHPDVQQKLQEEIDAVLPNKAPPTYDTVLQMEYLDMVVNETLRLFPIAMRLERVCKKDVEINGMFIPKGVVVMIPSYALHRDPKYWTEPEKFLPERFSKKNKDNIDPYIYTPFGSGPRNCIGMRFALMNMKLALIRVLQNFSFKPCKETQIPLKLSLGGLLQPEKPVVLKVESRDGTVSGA
# Method: as §1
# as §2, with “After incubation for 30 min at 37°C, 200 μL ice-cold acetonitrile and 30 μL diazepam (500 ng/mL) were added to terminate the reaction. The samples were centrifuged at 13,000 rpm for 5 min, and the supernatant fraction (150 μL) was collected for UPLC-MS/MS analysis.” left out
# [7] = molecular target: macitentan metabolism (formation of ACT-132577) (Homo sapiens, UniProt P08684); assay: as above; format: in vitro ADME; conditions: human, pH 7.4
# Sequence of macitentan metabolism (formation of ACT-132577) (Homo sapiens, UniProt P08684) (P08684 2-503): as above
# Method: as §1
# as §2, with “After incubation for 30 min at 37°C, 200 μL ice-cold acetonitrile and 30 μL diazepam (500 ng/mL) were added to terminate the reaction. The samples were centrifuged at 13,000 rpm for 5 min, and the supernatant fraction (150 μL) was collected for UPLC-MS/MS analysis.” left out
# [8] = molecular target: T1, recombinant human CYP3A4 (rCYP3A4) (Homo sapiens, UniProt P08684); assay: Inhibition of macitentan metabolism (ACT-132577 formation) by bergapten and Michaelis-Menten kinetics in recombinant human CYP3A4; format: in vitro ADME
# T1 construct: made in house
# T1 sequence (P08684 whole entry): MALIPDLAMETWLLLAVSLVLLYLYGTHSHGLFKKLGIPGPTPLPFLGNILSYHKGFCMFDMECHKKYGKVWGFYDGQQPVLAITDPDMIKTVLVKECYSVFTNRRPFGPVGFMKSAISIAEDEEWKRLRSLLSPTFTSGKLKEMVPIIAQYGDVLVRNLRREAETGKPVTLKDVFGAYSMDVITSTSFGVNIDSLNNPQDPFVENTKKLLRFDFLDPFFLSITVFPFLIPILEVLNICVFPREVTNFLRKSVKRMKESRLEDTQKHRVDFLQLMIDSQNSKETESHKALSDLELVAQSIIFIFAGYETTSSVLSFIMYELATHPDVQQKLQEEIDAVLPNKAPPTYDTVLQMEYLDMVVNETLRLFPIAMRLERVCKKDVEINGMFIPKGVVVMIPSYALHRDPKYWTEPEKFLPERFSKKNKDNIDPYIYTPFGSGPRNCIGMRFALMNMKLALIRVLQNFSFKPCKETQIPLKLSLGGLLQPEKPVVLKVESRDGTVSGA
# Method: as §1
# as §2, with “After incubation for 30 min at 37°C, 200 μL ice-cold acetonitrile and 30 μL diazepam (500 ng/mL) were added to terminate the reaction. The samples were centrifuged at 13,000 rpm for 5 min, and the supernatant fraction (150 μL) was collected for UPLC-MS/MS analysis.” left out
# [9] = Plasma Cmax of bergapten in rat (literature); format: in vivo; conditions: 3 mg/kg bergapten, converted from ng/mL, ref Li et al, 2014
# [10] = parameters: method as in Li et al, 2014; conditions: rat, 3 mg/kg bergapten; ref Li et al, 2014; cited from earlier work
# [11] = Inhibition of macitentan metabolism (ACT-132577 formation) by bergapten and Michaelis-Menten kinetics in rat liver microsomes; format: in vitro ADME; conditions: rat, rat liver microsomes, pH 7.4; RLMs
# Method: as §1, §2
# [12] = parameters: method as in Sidharta et al, 2015; conditions: estimated; ref Sidharta et al, 2015; cited from earlier work
# [13] = single dose macitentan, ref Atsmon et al, 2013
# [14] = control group (0.5% CMC-Na 7 days)
# [15] = experimental group (BP 10 mg/kg daily 7 days)
# [16] = with BP 10 mg/kg vs without, p < 0.05
smiles,measurement,setting,value
NS(=O)(=O)Nc1ncnc(OCCOc2ncc(Br)cn2)c1-c1ccc(Br)cc1 [ACT-132577],"Difference in pharmacokinetic parameters, experimental vs control group","[1]; with BP 10 mg/kg vs without, p > 0.05",no significant differences
same,Stability RE (%),"[2]; 4°C, 24 h, 30 ng/mL",106.81%
same,Stability RE (%),"[2]; 4°C, 24 h, 900 ng/mL",104.77%
same,Stability RE (%),"[2]; 4°C, 24 h, 9000 ng/mL",105.28%
same,Stability RE (%),"[2]; Room temperature, 6 h, 30 ng/mL",109.84%
same,Stability RE (%),"[2]; Room temperature, 6 h, 900 ng/mL",106.18%
same,Stability RE (%),"[2]; Room temperature, 6 h, 9000 ng/mL",107.44%
same,Stability RE (%),"[2]; −80°C, 7days, 30 ng/mL",105.76%
same,Stability RE (%),"[2]; −80°C, 7days, 900 ng/mL",107.26%
same,Stability RE (%),"[2]; −80°C, 7days, 9000 ng/mL",103.40%
same,Pharmacological activity of metabolite,ET receptor,Active
same,Potency relative to macitentan (less potent),ET receptor; antagonism of the ET receptor,approximately five-fold
same,Change in exposure in the presence of rifampin,"[3]; ref Bruderer et al, 2012b",no significant change
same,Concentrations when macitentan coadministered with St. John’s Wort,"[3]; ref Huppertz et al, 2018",unaltered
same,Exposure decrease in the presence of ketoconazole,[3]; [13],26%
CCCNS(=O)(=O)Nc1ncnc(OCC(=O)O)c1-c1ccc(Br)cc1 [ACT-373898],Pharmacological activity of metabolite,ET receptor,Inactive
"COc1c2ccoc2cc2oc(=O)ccc12 [BP, 5-methoxypsoralen]",Inhibition mechanism (Lineweaver-Burk),[4],competitive inhibition
same,Ki,"[4]; competitive inhibition, read-out: Ki of BP on macitentan metabolism",1.39 µM
same,IC50 at 30 min,[5],3.84 µM
same,Inhibition mechanism (Lineweaver-Burk),[6]; HLMs,competitive inhibition
same,Ki,"[6]; human, microsomes",0.12 µM
same,IC50 at 30 min,[7],17.8 µM
same,Inhibition mechanism (Lineweaver-Burk),[8]; rCYP3A4,competitive inhibition
same,IC50,"[8]; rCYP3A4 0.13 mg/mL, 30 min, 37°C, read-out: IC50 of BP on macitentan metabolism",12.8 µM
same,Ki,[8]; read-out: Ki of BP on macitentan metabolism,5.06 µM
same,Cmax,[9],~2100 nM
same,Cmax,[10],around 447.72 ± 30.61 ng/mL
CCCNS(=O)(=O)Nc1ncnc(OCCOc2ncc(Br)cn2)c1-c1ccc(Br)cc1 [macitentan],Km at 30 min,[11],4.82 µM
same,Vmax of macitentan metabolism,[4],0.50 nmol/min/mg protein
same,Cmax,[1]; control group,1340 ng/mL
same,Tmax,[1]; control group,1.92 ± 0.8 h
same,AUC(0-inf),[1]; [14],7900 ng·h/mL
same,AUC(0-t),[1]; [14],7870 ng·h/mL
same,CL/F,[1]; control group,43.3 mL/min/kg
same,MRT last,[1]; control group,5.48 ± 0.96 h
same,MRT inf,[1]; control group,5.6 ± 1.08 h
same,half-life,[1]; control group,4.53 ± 0.9 h
same,AUC(0-inf),[1]; [15],20400 ng·h/mL
same,AUC(0-t),[1]; [15],20300 ng·h/mL
same,Cmax,[1]; [15],3000 ng/mL
same,Tmax,[1]; [15],2.5 ± 0.55 h
same,CL/F,[1]; [15],17.8 mL/min/kg
same,MRT last,[1]; [15],5.91 ± 0.74 h
same,MRT inf,[1]; [15],6.12 ± 0.8 h
same,half-life,[1]; [15],5.07 ± 1.15 h
same,"CLz/F decreased by, experimental vs control group",[1]; with BP 10 mg/kg vs without,0.59 fold
same,"AUC(0-t) enhanced by, experimental vs control group",[1]; [16],1.57 fold
same,"AUC(0-∞) enhanced by, experimental vs control group",[1]; [16],1.58 fold
same,"Cmax enhanced by, experimental vs control group",[1]; [16],1.24 fold
same,Stability RE (%),"[2]; 4°C, 24 h, 4 ng/mL",107.57%
same,Stability RE (%),"[2]; 4°C, 24 h, 160 ng/mL",104.86%
same,Stability RE (%),"[2]; 4°C, 24 h, 1,600 ng/mL",106.50%
same,Stability RE (%),"[2]; Room temperature, 6 h, 4 ng/mL",113.51%
same,Stability RE (%),"[2]; Room temperature, 6 h, 160 ng/mL",109.43%
same,Stability RE (%),"[2]; Room temperature, 6 h, 1,600 ng/mL",105.63%
same,Stability RE (%),"[2]; −80°C, 7days, 4 ng/mL",104.39%
same,Stability RE (%),"[2]; −80°C, 7days, 160 ng/mL",103.80%
same,Stability RE (%),"[2]; −80°C, 7days, 1,600 ng/mL",105.44%
same,oral bioavailability,[12],74%
same,Exposure reduction in the presence of rifampin,"[3]; ref Bruderer et al, 2012b",four-fold
same,"Exposure reduced to, coadministered with St. John’s Wort","[3]; ref Huppertz et al, 2018",approximately half
same,Exposure increase in the presence of ketoconazole,[3]; [13],approximately two-fold
